According to patent US10172957B2, “Acid-labile lipophilic prodrugs of cancer chemotherapeutic agents” (priority 2011, dated 2019):

Legend:
[1] = test system: CCRF-CEM (CEM) cells; test: MTT-based cytotoxicity assay, CEM; format: cell-based, human; conditions: Homo sapiens, CCRF-CEM, read-out: IC50 CEM (HTL), CEM human T-lymphoblastoid, MTT
Text: A second evaluation of the cytotoxicity of the acid labile, lipophilic molecular conjugates was undertaken.
These lines included a uterine sarcoma line, MES-SA, and its doxorubicin-resistant subline, MES-SA/Dx5. See W. G. Harker, F. R MacKintosh, and B. I. Sikic. Development and characterization of a human sarcoma cell line, MES-SA, sensitive to multiple drugs. Cancer Research 43: 4943-4950 (1983); W. G. Harker and B. I. Sikic. Multidrug (pleiotropic) resistance in doxorubicin-selected variants of the human sarcoma cell line MES-SA. Cancer Research 45: 4091 4096 (1985).
The second set of cells tested, CCRF-CEM or simply CEM, were derived from the blood of a patient with acute lymphoblastic leukemia. G. E. Foley, H. Lazarus, S. Farber, B. G. Uzman, B. A. Boone, and R E. McCarthy. Continuous culture of human lymphoblasts from peripheral blood of a child with acute leukemia. Cancer 18: 522-529 (1965). The subline CEM/VLB100 was developed to be resistant to up to vinblastine at 100 ng/ml. W. T. Beck, T. J. Mueller, and L. R. Tanzer. Altered surface membrane glycoproteins in Vinca alkaloid-resistant human leukemic lymphoblasts. Cancer Research 39: 2070-2076 (1979). Drug resistance is achieved by overexpression of the MDR1 gene. Resistance in the CEM subline designated CEM/VM-1-5, however, is “atypical.” M. K. Danks, J. C. Yalowich, and W. T. Beck. Atypical multiple drug resistance in a human leukemic cell line selected for resistance to teniposide (VM-26). Cancer Research 47: 1297-1301 (1987). The classes of drugs included in the “classic” multiple drug resistance phenotype are Vinca alkaloids, anthracyclines, epipodophyllotoxins and antibiotics. However, CEM/VM-1-5 cells retain sensitivity to the Vinca alkaloids despite resistance and cross-resistance to etoposide, anthracyclines and mitoxantrone. Danks, M. K.; Schmidt, C. A.; Cirtain, M. C.; Suttle, D. P.; Beck, W. T., Altered catalytic activity of and DNA cleavage by DNA topoisomerase II from human leukemic cells selected for resistance to VM-26. Biochemistry 1988, 27, 8861-8869. Resistance in CEM/VM-1-5 cells is effected by over expression of the […]. CEM, CEM/VLB100 and CEM/VM-1-5 cells were obtained from Dr. WT Beck, University of Illinois at Chicago.

[2] = Stability in rat plasma at 37° C.; format: in vitro ADME
Experimental: The stability of the acid labile, lipophilic molecular conjugates to hydrolysis in plasma was evaluated to determine their potential to release the active cancer chemotherapeutic agents into systemic circulation and thereby cause general off target toxicity (“side effects”). The conjugates were incubated with plasma of mouse, rat and human origin.
HPLC grade Methanol from Fisher (Fair lawn, NJ, USA). Part No: A452-4 (074833). HPLC grade Water from Fisher (Fair lawn, NJ, USA). Part No: W5-4 (073352). Drug-free mouse, rat and human plasmas were purchased from Innovative Research Inc. (Southfield, Mich., USA). LIPOSYN® I.V. (30% soybean oil and egg yolk phospholipids, Abbott Laboratories) Fat Emulsion from Hospira, Inc. (Lake Forest, Ill.).
Each drug (ART 198, ART 273, ART 488 and ART 489) was prepared in triplicate in mouse, rat and human plasma individually at […] concentration and vortexed for 1 minute and placed in a water bath at 37° C. at a shake rate of 75 per minute. Samples were drawn at time points of 0, 15, 30, 45, 60, 75, 90, 105, 120, 135, 150, 165, 180, 210, 240, 300, 360 and 480 minutes.
Chromatographic separation of the compounds was performed on a Waters Acquity UPLC™ using a BEH C18 column (1.7 μm, 2.1×50 mm). The mobile phase consisted of Methanol: 0.1% Formic acid (80:20). The flow rate was 0.3 ml/min; the sample injection volume was 5 μL, resulting in a 3 minute run time.
The MS instrumentation consisted of a Waters Micromass Quattro Micro™ triple-quadrupole system (Manchester, UK). The MS system was controlled by a 4.0 version of MassLynx software. Ionization was performed in the positive electrospray ionization mode. MS/MS conditions were the following: capillary voltage 3.02 kV; cone voltage 50 v; extractor voltage 5 v; and RF lens voltage 0.5 v. The source and desolvation temperatures were 100° C. and 400° C. respectively, and the desolvation and cone gas flow were 400 and 30 L/hr, respectively.
The selected mass-to-charge (m/z) ratio transitions of the ART 198 used in the selected ion monitoring (SIM) were: for ART 198, 617 (M+K)^+, for ART 273, 589 (M+K)^+, for ART 488, 913 (M+Na)^+, and for ART 489, 957 (M+Na)^+. The dwell time was set at 200 msec. MS conditions were optimized using direct infusion of standard solutions prepared in methanol and delivered by a syringe pump at a flow rate of 20 μL/min.
Samples of 100 μL were collected at time points of 0, 15, 30, 45, 60, 75, 90, 105, 120, 135, 150, 165, 180, 210, 240, 300, 360 and 480 minutes respectively and the reaction was terminated with methanol. In a separate set of experiments the acid labile, lipophilic molecular conjugates were dissolved in a small amount of ethanol and diluted into a lipid emulsion (Liposyn®) and added to mouse and human plasma before incubation and the hydrolysis of the conjugates was similarly measured. Collected plasma samples of 100 μL containing drug were placed in separate Eppendorf micro centrifuge tubes for processing. Methanol (200 μL) was added to extract the drug using the protein precipitation technique. The micro tubes were then vortex mixed for 10 minutes and centrifuged for 15 minutes at a speed of 10,000 rpm (Eppendorf 5415C centrifuge). The supernatant was collected and filtered using a 0.45 μm filter (Waters 13 mm GHP 0.45 μm) before analysis.
The weighted linear least-squares (1/x) regression was used as the mathematical model. The coefficient (r) for the compounds ranged from 0.9925 to 0.9999. The calibration range was selected according to the concentrations anticipated in the samples to be determined.
Samples were collected at various times and the percent remaining of the acid labile, lipophilic molecular conjugate of the cancer chemotherapeutic agent was determined along with the percent of the chemotherapeutic agent released from the hydrolysis of the conjugate.

Structure (SMILES)	IC50 [1] [nM]	percent remaining of initial drug ([2]; 0 min) [%]	percent remaining of initial drug ([2]; 15 min) [%]	percent remaining of initial drug ([2]; 30 min) [%]	percent remaining of initial drug ([2]; 45 min) [%]	percent remaining of initial drug ([2]; 60 min) [%]	percent remaining of initial drug ([2]; 75 min) [%]	percent remaining of initial drug ([2]; 90 min) [%]	percent remaining of initial drug ([2]; 105 min) [%]	percent remaining of initial drug ([2]; 120 min) [%]	percent remaining of initial drug ([2]; 135 min) [%]	percent remaining of initial drug ([2]; 150 min) [%]	percent remaining of initial drug ([2]; 165 min) [%]	percent remaining of initial drug ([2]; 180 min) [%]	percent remaining of initial drug ([2]; 210 min) [%]	percent remaining of initial drug ([2]; 240 min) [%]	percent remaining of initial drug ([2]; 300 min) [%]	percent remaining of initial drug ([2]; 360 min) [%]	percent remaining of initial drug ([2]; 480 min) [%]
COC(=O)[C@@]12OC[C@]34[C@H]([C@@H](O)[C@@H]1O)[C@@]1(C)CC(=O)C(O)=C(C)[C@@H]1C[C@H]3OC(=O)C(OC(=O)CC1(O)CCCCC1)[C@@H]24 (stereo partly shown) [ART 198]	113 ± 53	100	95.8	84.0	66.0	55.7	54.4	54.2	54.0	52.1	48.9	48.9	45.4	44.0	42.7	42.2	34.3	30.1	30.1
CCCCCCCCCCCCCCCC1OCC(COC(=O)O[C@@H]2C(=O)C=C(C)[C@@H]3C[C@H]4OC(=O)C(OC(=O)CC(O)(C(C)C)C(C)C)C5[C@@H](C)[C@@H](O)[C@@]6(O)OC[C@@]54C6[C@@]23C)O1 (stereo partly shown) [ART 488]	4																		33.3
CCCCCCCCCCCCCCCC1OCC(COC(=O)OC2=C(C)[C@@H]3C[C@H]4OC(=O)C(OC(=O)CC5(O)CCCCC5)[C@H]5[C@]6(C(=O)OC)OC[C@]45[C@H]([C@@H](O)[C@@H]6O)[C@@]3(C)CC2=O)O1 (stereo partly shown) [ART 489]	21 ± 2	100	93.2	75.8	74.3	75.0	74.4	74.4	73.7	69.9	68.5	67.3	63.0	63.0	62.7	61.7	55.4	48.2	34.3
